This is an account of results in US20020198215A1 (priority 2000, published 2002).

The nature of data set [1]: Calculation of the release rate for a terazosin transdermal delivery system from literature pharmacokinetic data. Particulars: product of steady state concentration and clearance rate. The text has this:
Therefore, an equal dose is required to be delivered transdermally. […] The largest desirable surface area for a transdermal patch is about 40 cm^2. […] To account for drug elimination, further pharmacokinetic data and physiological data was required. […] The largest desirable surface area for a transdermal patch is about 40 cm^2. […] One of skill would expect a different input rate or flux to maintain a steady state concentration in consideration of the rate of loss of drug in the plasma due to elimination. A confirmatory calculation for flux requires further pharmacokinetic parameters. […] The largest desirable surface area for a transdermal patch is about 40 cm^2. […], yields a release rate of […] of transdermal patch surface area.

For data set [2] the following is noted: cited from earlier work.
The conditions of data set [3]: after oral administration; cited from earlier work.
The subject of another data set is plasma proteins. The conditions noted are these: cited from earlier work.
The conditions of data set [4]: terazosin therapy; cited from earlier work.

A word on the bioavailability: it is the share of a dose that reaches the circulation, judged against a reference dose that is usually intravenous. For the molecule `COc1cc2nc(N3CCN(C(=O)C4CCCO4)CC3)nc(N)c2cc1OC` (stereo not drawn) [terazosin, Terazosin], the dosing rate in data set [1] was 216 µg/h. The removed during hemodialysis in data set [2] (hemodialysis) is given as 10%. Besides, the “effect of impaired renal function on elimination” value in data set [2] (impaired renal function) was “no significant effect”. In addition, in data set [2] (in vivo), the “dose excreted renally as unchanged drug” value is given as 10%, the physiological clearance rate is recorded as 4,800 ml/hour and the “plasma concentration at steady state” value is 45 ng/mL. In addition, in data set [2] (oral administration), the first-pass effect result was “minimal first-pass effect” and the “time of peak plasma levels after administration” value is “about 1 hour”. The bioavailability in data set [2] (oral dose, gastrointestinal absorption) is reported as 90%. Also, the “effect of food on terazosin bioavailability” value in data set [2] (oral, presence of food) is reported as “no significant effect”. Besides, the “delay of time to peak concentrations by food” value in data set [2] (oral, with food) is “about 1 hour”. Besides, in data set [2] (treatments from 1 to 5 days, dosages up to 40 mg), the “plasma drug concentrations versus dosage” value is “increased proportionately”. In addition, the “time until antihypertensive effects are seen” value in data set [3] is no more than 15 min. Besides, the “bound to plasma proteins” value with plasma proteins is given as 90-94%. In addition, in data set [4], the “adverse effect: asthenia (weakness, tiredness, and fatigue)” value is recorded as 11%; the “adverse effect: dizziness” value was 19%; the “adverse effect: drowsiness” value is reported as 5%; the “adverse effect: headache” value is 16%. Further, in data set [4], the “adverse effect: nasal congestion” value is 6%, the “adverse effect: nausea/vomiting” value is 4.4% and the “adverse effect: peripheral edema” value is 6%.
